# In US20230121157A1, “ANTI-AGING CARE COMPOSITION COMPRISING PERFUMES” (BASF SE, priority 2020, published 2023):
# Assay: Free radicals generated inside a formulation containing perfume after UV irradiation (ESR, spin marker PCA)
# Assay type: physicochemical
# Conditions: 0.1% (w/w) perfume in formulation, diluted 1:10 in water, 0.01 mM PCA; UVB 23,5 W/m^2, UVA 180 W/m^2
# Method: To measure the free radicals generation inside a formulation after UV irradiation, the concentration of a photostable spin marker added to the tested samples is followed by Electron Spin Resonance (ESR) spectroscopy before and after UV irradiation of the tested samples. The photostable spin marker will promptly react with the free radical generated in the formulation after UV irradiation.
# 0.1% (w/w) of the perfume to be tested is incorporated into the formulation, the formulation is then diluted in distillated water (1:10 dilution factor) and a water solution of the spin marker PCA (2,2,5,5,-tetramethyl pyrrolidine N-oxyl) is added to obtain a spin marker concentration of 0.01 mM. […] The sample is inserted in a capillary quartz tube to perform ESR measurement before and after 20 minutes of UV irradiation. The irradiances as integrated value over the spectral ranges of the solar simulator can exemplarily be E=23,5W/m^2 for UVB and 180W/m^2 for UVA.
# The percentage of UV-induced free radicals inside the formulation containing the perfume to be tested serves as indicator to the sensitivity of said perfume.
# The Electron Spin Resonance (ESR) measurements were performed with a high sensitive X-band bench top Electron Spin Resonance Spectrometer MiniScope MS300, supplied from Magnettech GmbH Berlin, Germany.
# To measure the free radicals generation inside the formulation after UV irradiation, the concentration of a photostable spin marker added to the tested samples was followed by
# Electron Spin Resonance (ESR) spectroscopy before and after UV irradiation of the tested samples. The photostable spin marker promptly reacted with the free radical generated in the formulation after UV irradiation.
# 0.1% (w/w) of the perfume to be tested (compare to Table 1) was incorporated into the formulation. The formulation was then diluted in distillated water (1:10 dilution factor) and a water solution of the spin marker PCA (2,2,5,5,-tetramethyl pyrrolidine N-oxyl) was added to obtain a spin marker concentration of 0.01 mM. Knowing the concentration of the spin trap PCA within the formulation, the amount of reduced PCA was calculated. The sample was inserted in a capillary quartz tube to perform ESR measurement before and after 20 minutes of UV irradiation. The irradiances as integrated value over the spectral ranges of the solar simulator were E=23,5 W/m^2 for UVB and 180 W/m^2 for UVA.
row,Compound,% free radicals after 20 min UV irradiation [%]
1,OCc1ccccc1 [Benzyl Alcohol],4.4
2,"CC(C)=CCCC(C)=CC=O [Citral, 3,7-dimethylocta-2,6-dienal]",16.5
3,"CC(C)=CCCC(C)CCO (stereo not shown) [Citronellol, 3,7-dimethyloct-6-en-1-ol]",6.6
4,CC(CC=O)CCCC(C)(C)O (stereo not shown) [Hydroxycitronellal],3.7
5,"COc1cc(C=O)ccc1O [Vanillin, 4-hydroxy-3-methoxybenzaldehyde]",85.9

# Now from value to compound:
row,% free radicals after 20 min UV irradiation [%],Compound
1,17.5,"O=C(OCc1ccccc1)c1ccccc1O [Benzyl Salicylate, benzyl 2-hydroxybenzoate]"
2,11.5,"O=c1ccc2ccccc2o1 [Coumarin, 2H-chromen-2-one]"
